# Laboratory results reported in BindingDB's records for doi:10.1074/jbc.M113.474114 (Glaxosmithkline, 2013).
# Biological target: T1, Tyrosine-protein kinase ITK/TSK [357-620,Y512E] (Human, UniProt Q08881, Y512E)
# T1 construct: 357-620
# Assay: LanthaScreen Kinase Binding Assay
# From the text: This assay is based on the binding and displacement of Alexa-fluor 647-labeled ATP-competitive kinase inhibitor tracer 236. Binding of the tracer is detected using a europium-labeled anti-tag antibody that binds to the purified recombinant tagged Itk protein. Binding of the tracer 236 is reversible and rapid, and simultaneous binding of the tracer and antibody results in fluorescence resonance energy transfer (FRET). Displacement of the tracer upon inhibitor binding results in a decrease of FRET. The assay can be read continuously, enabling rates of binding (and displacement) to be monitored.
# T1 sequence (Q08881 357-620 Y512E): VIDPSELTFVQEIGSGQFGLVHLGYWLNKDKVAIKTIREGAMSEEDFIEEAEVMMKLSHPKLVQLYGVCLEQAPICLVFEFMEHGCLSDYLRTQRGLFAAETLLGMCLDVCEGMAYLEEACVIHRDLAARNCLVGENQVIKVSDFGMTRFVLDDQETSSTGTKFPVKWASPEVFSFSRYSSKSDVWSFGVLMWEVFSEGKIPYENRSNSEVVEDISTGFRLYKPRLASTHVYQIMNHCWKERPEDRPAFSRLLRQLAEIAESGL
row,SMILES,IC50
1,C=CC(=O)N1CC[C@H](Nc2cc(CN[C@@H](C)C(C)(C)C)cc(Nc3nc4cccnc4s3)n2)C1,5 nM
2,"C=CC(=O)N[C@H]1CCCC[C@H]1Nc1nc(CN2CCOCC2)cc(Nc2nc3cccnc3s2)n1 (relative stereo) [N-(cis-2-{[4-(4-Morpholinylmethyl)-6-([1,3]thiazolo[5,4-b]pyridin-2-ylamino)-2-pyrimidinyl]amino}cyclohexyl)-2-propenamide (4)]",320 nM
3,"C=CC(=O)N[C@H]1CCC[C@@H](Nc2nc(CN3CCOCC3)cc(Nc3nc4cccnc4s3)n2)C1 (relative stereo) [N-(cis-3-{[4-(4-Morpholinylmethyl)-6-([1,3]thiazolo[5,4-b]pyridin-2-ylamino)-2-pyrimidinyl]amino}cyclohexyl)-2-propenamide (6)]",250 nM
4,"O[C@H]1CC[C@H](Nc2nc(CN3CCOCC3)cc(Nc3nc4cccnc4s3)n2)CC1 [(trans)-4-((4-(Morpholinomethyl)-6-(thiazolo[5,4-b]pyridin-2-ylamino)pyrimidin-2-yl)amino)cyclohexanol (1)]",100 nM
5,"C=CC(=O)N1CCC(Nc2nc(CN3CCOCC3)cc(Nc3nc4cccnc4s3)n2)CC1 [N2-(1-Acryloyl-4-piperidinyl)-6-(4-morpholinylmethyl)-N4-[1,3]thiazolo[5,4-b]pyridin-2-yl-2,4-pyrimidinediamine (3)]",320 nM
6,"C=CC(=O)N1CC[C@@H](Nc2nc(CN3CCOCC3)cc(Nc3nc4cccnc4s3)n2)C1 [N2-[(3R)-1-Acryloyl-3-pyrrolidinyl]-6-(4-morpholinylmethyl)-N4-[1,3]thiazolo[5,4-b]pyridin-2-yl-2,4-pyrimidinediamine (14)]",20000 nM
7,"C=CC(=O)N1CC[C@H](Nc2nc(CN3CCOCC3)cc(Nc3nc4cccnc4s3)n2)C1 [N2-[(3S)-1-Acryloyl-3-pyrrolidinyl]-6-(4-morpholinylmethyl)-N4-[1,3]thiazolo[5,4-b]pyridin-2-yl-2,4-pyrimidinediamine (7)]",500 nM
8,"C=CC(=O)NCCNc1nc(CN2CCOCC2)cc(Nc2nc3cccnc3s2)n1 [N-(2-{[4-(4-Morpholinylmethyl)-6-([1,3]thiazolo[5,4-b]pyridin-2-ylamino)-2-pyrimidinyl]amino}ethyl)-2-propenamide (2)]",1300 nM
9,"C=CC(=O)N[C@H]1CC[C@H](Nc2nc(CN3CCOCC3)cc(Nc3nc4cccnc4s3)n2)CC1 [N-(trans-4-{[4-(4-Morpholinylmethyl)-6-([1,3]thiazolo[5,4-b]pyridin-2-ylamino)-2-pyrimidinyl]amino}cyclohexyl)-2-propenamide (5)]",2000 nM

# The remaining lines, values ahead:
row,IC50,SMILES
1,7.9 nM,"C=CC(=O)N1CC[C@H](Nc2cc(CN[C@H](C)C(C)(C)C)cc(Nc3nc4cccnc4s3)n2)C1 [1-((S)-3-((4-((((R)-3,3-Dimethylbutan-2-yl)amino)methyl)-6-(thiazolo[5,4-b]pyridin-2-ylamino)pyridin-2-yl)amino)pyrrolidin-1-yl)prop-2-en-1-one (13)]"
2,32 nM,"C=CC(=O)N1CC[C@H](Nc2cc(CN(C)C)cc(Nc3nc4cccnc4s3)n2)C1 [(S)-1-(3-((4-((Dimethylamino)methyl)-6-(thiazolo[5,4-b]pyridin-2-ylamino)pyridin-2-yl)amino)pyrrolidin-1-yl)prop-2-en-1-one (11)]"
3,6.3 nM,"C=CC(=O)N1CC[C@H](Nc2cc(CN3CCCCC3)cc(Nc3nc4cccnc4s3)n2)C1 [(S)-1-(3-((4-(Piperidin-1-ylmethyl)-6-(thiazolo[5,4-b]pyridin-2-ylamino)pyridin-2-yl)amino)pyrrolidin-1-yl)prop-2-en-1-one (10)]"
4,5 nM,"C=CC(=O)N1CC[C@H](Nc2cc(CN3C[C@@H](C)O[C@@H](C)C3)cc(Nc3nc4cccnc4s3)n2)C1 [N-[(3S)-1-Acryloyl-3-pyrrolidinyl]-4-{[cis-2,6-dimethyl-4-morpholinyl]methyl}-N'-[1,3]thiazolo[5,4-b]pyridin-2-yl-2,6-pyridinediamine (9)]"
5,40 nM,"C/C=C/C(=O)N1CC[C@H](Nc2cc(CN3C[C@@H](C)O[C@@H](C)C3)cc(Nc3nc4cccnc4s3)n2)C1 [N-{(3S)-1-[(2E)-2-Butenoyl]-3-pyrrolidinyl}-4-{[cis-2,6-dimethyl-4-morpholinyl]methyl}-N'-[1,3]thiazolo[5,4-b]pyridin-2-yl-2,6-pyridinediamine (16)]"
